Assay [1] addresses S-RBD-ACE2 protein complex (Homo sapiens, UniProt Q9BYF1). The format is binding, SARS-CoV-2.
The next assay deals with SARS-CoV2 S2 ECD (Severe acute respiratory syndrome coronavirus 2, UniProt P0DTC2). Nature of the assay: biochemical. The format is binding, SARS-CoV-2.
In a further assay the target is human ACE2 (Homo sapiens, UniProt Q9BYF1). Kind of assay: Surface plasmon resonance assay, human ACE2 chip. The format is binding. As to conditions: SPR, human ACE2 extracellular domain, pH 4.5, 25 °C. (SPR reads the build-up and loss of mass on a sensor chip optically.)
Sequence of human ACE2 (Q9BYF1 18-740): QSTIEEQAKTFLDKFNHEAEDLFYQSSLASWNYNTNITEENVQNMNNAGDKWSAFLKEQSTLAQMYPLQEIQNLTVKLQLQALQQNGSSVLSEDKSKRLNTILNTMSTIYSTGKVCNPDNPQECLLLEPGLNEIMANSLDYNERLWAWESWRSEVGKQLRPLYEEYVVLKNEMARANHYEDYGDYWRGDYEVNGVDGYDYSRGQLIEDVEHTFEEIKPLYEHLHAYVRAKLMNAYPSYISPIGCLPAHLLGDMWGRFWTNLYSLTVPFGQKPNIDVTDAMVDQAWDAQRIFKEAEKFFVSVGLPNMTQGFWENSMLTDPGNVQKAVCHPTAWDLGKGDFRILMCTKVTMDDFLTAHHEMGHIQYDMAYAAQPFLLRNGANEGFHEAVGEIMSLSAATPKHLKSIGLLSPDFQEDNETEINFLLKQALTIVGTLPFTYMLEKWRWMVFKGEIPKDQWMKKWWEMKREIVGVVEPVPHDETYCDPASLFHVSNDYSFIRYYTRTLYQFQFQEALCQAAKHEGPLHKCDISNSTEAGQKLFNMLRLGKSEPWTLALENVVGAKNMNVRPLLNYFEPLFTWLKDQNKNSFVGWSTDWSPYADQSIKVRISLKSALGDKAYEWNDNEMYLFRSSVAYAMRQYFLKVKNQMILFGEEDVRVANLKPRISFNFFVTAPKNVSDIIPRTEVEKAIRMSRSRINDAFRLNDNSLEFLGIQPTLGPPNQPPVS
A further assay addresses SARS-CoV-2 S1 + S2 ECD (Severe acute respiratory syndrome coronavirus 2, UniProt P0DTC2). Nature of the assay: biochemical. The format is binding.

The record followed here is PMC7290210 (Infection, Genetics and Evolution, 2020).

Sequence of S-RBD-ACE2 protein complex (Q9BYF1 18-740, one chain of several): as the sequence (Q9BYF1 18-740) above

Turning to `[Ca+2].[Cl-].[Cl-]` [CaCl2], the “Tm Mean of RBD-ACE2 complex” value in assay [1] worked out at 51.6 °C.

For orientation: Kd means a measure of binding affinity in units of concentration. As for `CC1=NN(c2ccc(C)c(C)c2)C(=O)/C1=N\Nc1cccc(-c2cccc(C(=O)O)c2)c1O` [Eltrombopag], the dissociation constant (Kd) on SARS-CoV2 S2 ECD (KD) is 2.17 µM; at human ACE2, 0.828 µM; at SARS-CoV-2 S1 + S2 ECD, 2.01 µM. On human ACE2, the Rmax worked out at 21.95 RU. Moreover, the “Tm Mean of RBD-ACE2 complex” value in assay [1] came out at 49.9 °C.

In turn, `CC1(C)[C@@H](O[C@H]2O[C@H](C(=O)O)[C@@H](O)[C@H](O)[C@H]2O[C@@H]2O[C@H](C(=O)O)[C@@H](O)[C@H](O)[C@H]2O)CC[C@]2(C)[C@H]3C(=O)C=C4[C@@H]5C[C@@](C)(C(=O)O)CC[C@]5(C)CC[C@@]4(C)[C@]3(C)CC[C@@H]12` [Glycyrrhizate, glycyrrhizate] came in with a dissociation constant (Kd) at human ACE2 of 4900 µM. In addition, the Rmax on human ACE2 (listed as glycyrrhizate) stood at 557.8 RU.

On human ACE2, `CC1(C)[C@@H](O[C@H]2O[C@H](C(=O)O)[C@@H](O)[C@H](O)[C@H]2O[C@@H]2O[C@H](C(=O)O)[C@@H](O)[C@H](O)[C@H]2O)CC[C@]2(C)[C@H]3C(=O)C=C4[C@@H]5C[C@@](C)(C(=O)O)CC[C@]5(C)CC[C@@]4(C)[C@]3(C)CC[C@@H]12` [Glycyrrhizin, glycyrrhizin] registered a Kd of 1800 µM. The Rmax on human ACE2 (listed as glycyrrhizin) was found to be 499.4 RU.

In the case of `[Cl-].[Cl-].[Mg+2]` [MgCl2], the “Tm Mean of RBD-ACE2 complex” value in assay [1] worked out at 51.6 °C.

Compound Glycyrrhizic acid registered an Rmax at SARS-CoV2 S2 ECD (pH 5.5) of 623.7 RU.
